Measurements as given in ChEMBL document CHEMBL5338820, “Discovery and Design of Novel Cyclic Peptides as Specific Inhibitors Targeting CCN2 and Disrupting CCN2/EGFR Interaction for Kidney Fibrosis Treatment” (J Med Chem, 2023).
Active and inactive are the calls of the source. The calls are words filed in the database; no cut-off is given here. Peptide text beside a SMILES is read from it.

Columns and labels:
[1] = target: T1, CCN2-EGFR (Homo sapiens) (UniProt P00533+P29279); assay: Inhibition of His-tagged full length human CCN2 CT domain/human Fc-tagged EGFR protein-protein interaction using TMB as chromogenic substrate at 100 uM incubated for 140 mins by microplate reader assay relative to control
[2] = Toxicity in Unilateral ureteric obstruction C57BL/6J mouse model assessed as change in behaviour at 250 microg/kg,ip administrated for 14 days; conditions: in vivo, 0.25 mg/kg, 336 h, dose 250 µg/kg, time 14 day
[3] = Toxicity in Unilateral ureteric obstruction C57BL/6J mouse model assessed as change in hair color at 250 microg/kg,ip administrated for 14 days; conditions: in vivo, 0.25 mg/kg, 336 h, dose 250 µg/kg, time 14 day
[4] = system: Mus musculus; assay: Antifibrotic activity against Unilateral ureteric obstruction ligation induced C57BL/6J mouse kidney fibrosis model assessed as reduction of renal tubular injury at 250 microg/kg,ip administrated for 14 days by hematoxylin and eosin staining based analysis; format: functional, organism-based; conditions: dose 250.0 µg/kg, time 14.0 day
[5] = Toxicity in Unilateral ureteric obstruction C57BL/6J mouse model assessed as change in body weight at 250 microg/kg,ip administrated for 14 days; conditions: in vivo, 0.25 mg/kg, 336 h, dose 250 µg/kg, time 14 day
[6] = Toxicity in Unilateral ureteric obstruction C57BL/6J mouse model assessed as change in food consumption at 250 microg/kg,ip administrated for 14 days; conditions: in vivo, 0.25 mg/kg, 336 h, dose 250 µg/kg, time 14 day
[7] = target: T2, CCN family member 2 (Homo sapiens) (UniProt P29279); assay: Inhibition of recombinant human CCN2 CT domain expressed in human […] cells assessed as reduction in COL1A1 synthesis at 100 uM incubated for 24 hrs by Western blotting assay; format: cell-based
T2 sequence (whole entry): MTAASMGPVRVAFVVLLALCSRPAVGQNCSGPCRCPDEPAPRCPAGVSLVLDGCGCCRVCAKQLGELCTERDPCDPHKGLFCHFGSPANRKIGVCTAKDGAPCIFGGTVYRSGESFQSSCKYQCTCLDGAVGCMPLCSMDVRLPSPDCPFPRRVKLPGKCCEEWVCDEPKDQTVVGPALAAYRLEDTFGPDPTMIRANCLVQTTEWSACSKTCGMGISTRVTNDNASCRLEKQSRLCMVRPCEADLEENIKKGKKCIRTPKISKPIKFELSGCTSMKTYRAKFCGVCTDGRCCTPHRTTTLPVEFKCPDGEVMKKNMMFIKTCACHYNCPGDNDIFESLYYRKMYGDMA

[8] = system: Mus musculus; assay: Antifibrotic activity against Unilateral ureteric obstruction ligation induced C57BL/6J mouse kidney fibrosis model assessed as reduction of collagen formation at 250 microg/kg,ip administrated for 14 days by […] staining based analysis; format: functional, organism-based; conditions: dose 250.0 µg/kg, time 14.0 day
[9] = system: Mus musculus; assay: Antifibrotic activity against Unilateral ureteric obstruction ligation induced C57BL/6J mouse kidney fibrosis model assessed as reduction of inflammatory infiltration at 250 microg/kg,ip administrated for 14 days by hematoxylin and eosin staining based analysis; format: functional, organism-based; conditions: dose 250.0 µg/kg, time 14.0 day
[10] = system: Mus musculus; assay: Antifibrotic activity against Unilateral ureteric obstruction ligation induced C57BL/6J mouse kidney fibrosis model assessed as downregulation of fibronectin synthesis at 250 microg/kg,ip administrated for 14 days by Western blotting analysis; format: functional, organism-based; conditions: dose 250.0 µg/kg, time 14.0 day
[11] = system: Mus musculus; assay: Antifibrotic activity against Unilateral ureteric obstruction ligation induced C57BL/6J mouse kidney fibrosis model assessed as downregulation of STAT3 phosphorylation at 250 microg/kg,ip administrated for 14 days by Western blotting analysis; format: functional, organism-based; conditions: dose 250.0 µg/kg, time 14.0 day
[12] = system: Mus musculus; assay: Antifibrotic activity against Unilateral ureteric obstruction ligation induced C57BL/6J mouse kidney fibrosis model assessed as downregulation of EGFR phosphorylation at 250 microg/kg,ip administrated for 14 days by Western blotting analysis; format: functional, organism-based; conditions: dose 250.0 µg/kg, time 14.0 day
[13] = target: T1, CCN2-EGFR (Homo sapiens); assay: Inhibition of His-tagged full length human CCN2 FL domain/human Fc-tagged EGFR protein-protein interaction using TMB as chromogenic substrate at 100 uM incubated for 140 mins by microplate reader assay relative to control
[14] = system: Mus musculus; assay: Antifibrotic activity against Unilateral ureteric obstruction ligation induced C57BL/6J mouse kidney fibrosis model assessed as downregulation of COL1A1 synthesis at 250 microg/kg,ip administrated for 14 days by Western blotting analysis; format: functional, organism-based; conditions: dose 250.0 µg/kg, time 14.0 day
[15] = target: T2, CCN family member 2 (Homo sapiens); assay: Inhibition of recombinant human CCN2 CT domain expressed in human […] cells assessed as reduction in fibronectin synthesis at 100 uM incubated for 24 hrs by Western blotting assay; format: cell-based
[16] = target: T3, CCN family member 2 (Homo sapiens, UniProt P29279); assay: Binding affinity to His-tagged full length human CCN2 CT domain assessed as dissociation constant by isothermal titration calorimetry assay
T3 sequence (P29279 whole entry): T2 sequence (whole entry)

[17] = target: T2, CCN family member 2 (Homo sapiens); assay: Inhibition of recombinant human CCN2 FL domain expressed in human […] cells assessed as reduction in STAT3 phosphorylation at 100 uM incubated for 24 hrs by Western blotting assay; format: cell-based

T1 sequence (P00533 whole entry, looked up, one chain of several, the tested form may be a part): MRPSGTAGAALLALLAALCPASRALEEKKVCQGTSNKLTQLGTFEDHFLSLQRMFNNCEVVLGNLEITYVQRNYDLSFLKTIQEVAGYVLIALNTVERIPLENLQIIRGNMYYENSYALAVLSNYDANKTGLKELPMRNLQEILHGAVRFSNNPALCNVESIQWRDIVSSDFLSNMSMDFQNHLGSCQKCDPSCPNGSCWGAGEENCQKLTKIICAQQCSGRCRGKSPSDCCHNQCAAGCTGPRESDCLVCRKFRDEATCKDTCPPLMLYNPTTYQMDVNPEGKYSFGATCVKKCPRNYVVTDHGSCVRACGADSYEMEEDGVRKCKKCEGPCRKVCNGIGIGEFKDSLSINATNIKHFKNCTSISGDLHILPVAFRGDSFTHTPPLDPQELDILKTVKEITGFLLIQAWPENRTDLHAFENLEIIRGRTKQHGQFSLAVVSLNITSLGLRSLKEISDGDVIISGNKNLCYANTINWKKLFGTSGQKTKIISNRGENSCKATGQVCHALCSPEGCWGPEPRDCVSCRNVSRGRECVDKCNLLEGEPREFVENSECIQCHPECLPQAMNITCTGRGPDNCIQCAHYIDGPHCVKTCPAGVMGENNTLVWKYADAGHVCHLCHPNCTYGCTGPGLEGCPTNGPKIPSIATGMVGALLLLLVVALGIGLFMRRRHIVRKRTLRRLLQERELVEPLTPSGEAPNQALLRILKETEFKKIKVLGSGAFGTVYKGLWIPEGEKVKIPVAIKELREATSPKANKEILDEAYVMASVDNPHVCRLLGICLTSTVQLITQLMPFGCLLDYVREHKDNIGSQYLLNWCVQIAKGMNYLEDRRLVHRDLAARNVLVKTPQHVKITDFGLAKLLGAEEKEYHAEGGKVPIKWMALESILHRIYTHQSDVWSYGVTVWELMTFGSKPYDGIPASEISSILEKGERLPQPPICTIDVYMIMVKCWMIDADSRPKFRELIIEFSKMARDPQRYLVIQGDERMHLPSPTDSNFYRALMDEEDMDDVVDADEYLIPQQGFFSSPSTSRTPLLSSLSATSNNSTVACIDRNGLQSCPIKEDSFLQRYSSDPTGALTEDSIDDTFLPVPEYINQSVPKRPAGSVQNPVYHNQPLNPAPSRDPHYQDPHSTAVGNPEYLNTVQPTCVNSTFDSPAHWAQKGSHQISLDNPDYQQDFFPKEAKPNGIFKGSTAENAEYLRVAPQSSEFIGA

C[C@@H](O)[C@H](N)C(=O)N[C@@H](CCCCN)C(=O)N[C@@H](Cc1c[nH]cn1)C(=O)N[C@@H](CCCNC(=N)N)C(=O)N1CCC[C@H]1C(=O)N[C@@H](Cc1c[nH]c2ccccc12)C(=O)N[C@H](C(N)=O)[C@@H](C)O (H-TKHRPWT-NH2)
inhibition [1]: 78.7% | Activity [2]: Non-Toxic | Activity [3]: Non-Toxic | Activity [4]: Active | Activity [5]: Non-Toxic | Activity [6]: Non-Toxic | inhibition [7]: Active | Activity [8]: Active | Activity [9]: Active | Activity [10]: Active | Activity [11]: Active | Activity [12]: Active | inhibition [13]: 62.3% | Activity [14]: Active | inhibition [15]: Active | Kd [16]: 3.9 µM | inhibition [17]: Active
